Among the data in patent publication US11655225B2, “Antimycobacterial heterocyclic amides” (Crestone, Inc., priority 2018, dated 2023) are MIC values, retold here.

The structures appear in SMILES notation. Values after ≈ are worked out from the molar mass of the structure shown.

As usually defined, the MIC is the smallest concentration in the dilution series that meets the test's criterion for growth inhibition.

The assay has as its system M. abscessus. The experiment in a line: MIC determination, CLSI M24-A. The format is cell-based. Particulars: Mycobacteroides abscessus, CLSI M24-A.

`CC1CCC(C(=O)Nc2nc3ccc(OC(F)(F)F)cc3s2)C1` (stereo not shown) [Example 102, 3-methyl-N-[6-(trifluoromethoxy)-1,3-benzothiazol-2-yl]cyclopentane-1-carboxamide] yielded an MIC of 2 to 32 µg/mL (≈ 5.81 to 92.9 µM).
To `CC1(C(=O)Nc2nc3c(F)c(F)c(F)cc3s2)CCCCCC1` [Example 103, 1-methyl-N-(4,5,6-trifluoro-1,3-benzothiazol-2-yl)cycloheptane-1-carboxamide] belongs 2 to 32 µg/mL (≈ 5.84 to 93.5 µM); to `CC1(C(=O)Nc2nc3ccc(OC(F)(F)F)cc3s2)CC2CCC1C2` (stereo not shown) [Example 104, 2-methyl-N-[6-(trifluoromethoxy)-1,3-benzothiazol-2-yl]bicyclo[2.2.1]heptane-2-carboxamide], 2 to 32 µg/mL (≈ 5.4 to 86.4 µM).
In turn, `CC1(C(=O)Nc2cc3ccccc3s2)CCCCC1` [Example 105, N-(1-benzothiophen-2-yl)-1-methylcyclohexane-1-carboxamide] returned a minimal inhibitory concentration (MIC) of 2 to 32 µg/mL (≈ 7.32 to 117 µM).
`Cc1cc2nc(NC(=O)C3(C)CCCCC3)sc2c(C)c1Br` [Example 106, N-(6-bromo-5,7-dimethyl-1,3-benzothiazol-2-yl)-1-methylcyclohexane-1-carboxamide] returned a minimal inhibitory concentration (MIC) of 2 to 32 µg/mL (≈ 5.24 to 83.9 µM).
The molecule `O=C(Nc1nc2ccc(Cl)cc2s1)C12CC3CC(CC(C3)C1)C2` [Example 107, N-(6-chloro-1,3-benzothiazol-2-yl)adamantane-1-carboxamide] registered an MIC of 2 to 32 µg/mL (≈ 5.77 to 92.3 µM).
To `O=C(Nc1nc2ccc(OC(F)F)cc2s1)C1CCCCCCC1` [Example 108, N-[6-(difluoromethoxy)-1,3-benzothiazol-2-yl]cyclooctanecarboxamide] belongs 2 to 32 µg/mL (≈ 5.64 to 90.3 µM).
In the case of `O=C(Nc1nc2c(F)cc(F)cc2s1)C1CCCCCCC1` [Example 109, N-(4,6-difluoro-1,3-benzothiazol-2-yl)cyclooctanecarboxamide] it was 2 to 32 µg/mL (≈ 6.17 to 98.6 µM).
To `O=C(Nc1nc2ccc(Cl)cc2s1)C1CCCCCCC1` [Example 110, N-(6-chloro-1,3-benzothiazol-2-yl)cyclooctanecarboxamide] belongs 2 to 32 µg/mL (≈ 6.19 to 99.1 µM); to `CCOc1ccc2nc(NC(=O)C34CC5CC(C)(CC(C)(C5)C3)C4)sc2c1` [Example 111, N-(6-ethoxy-1,3-benzothiazol-2-yl)-3,5-dimethyladamantane-1-carboxamide], 2 to 32 µg/mL (≈ 5.2 to 83.2 µM).
In turn, `CC12CC3CC(C)(C1)CC(C(=O)Nc1nc4cc(Cl)c(Cl)cc4o1)(C3)C2` [Example 112, N-(5,6-dichloro-1,3-benzoxazol-2-yl)-3,5-dimethyladamantane-1-carboxamide] had an MIC of 2 to 32 µg/mL (≈ 5.08 to 81.4 µM).
Take `CC1CC(C(=O)Nc2nc3cc(Cl)c(Cl)cc3o2)CC(C)(C)C1` (stereo not shown) [Example 113, N-(5,6-dichloro-1,3-benzoxazol-2-yl)-3,3,5-trimethylcyclohexane-1-carboxamide]: the MIC lay in the range of 2 to 32 µg/mL (≈ 5.63 to 90.1 µM).
Consider `CC1CC(C(=O)Nc2nc3cc(Cl)ccc3o2)CC(C)(C)C1` (stereo not shown) [Example 114, N-(5-chloro-1,3-benzoxazol-2-yl)-3,3,5-trimethylcyclohexane-1-carboxamide], for which the MIC fell in the range of 2 to 32 µg/mL (≈ 6.23 to 99.7 µM).
To `CC12CC3CC(C)(C1)CC(C(=O)Nc1nc4ccc(Br)cc4o1)(C3)C2` [Example 115, N-(6-bromo-1,3-benzoxazol-2-yl)-3,5-dimethyladamantane-1-carboxamide] belongs 2 to 32 µg/mL (≈ 4.96 to 79.3 µM).
To `O=C(Nc1nc2c(F)c(F)c(F)cc2s1)C1CCCCCCC1` [Example 116, N-(4,5,6-trifluoro-1,3-benzothiazol-2-yl)cyclooctanecarboxamide] belongs 2 to 32 µg/mL (≈ 5.84 to 93.5 µM); to `CC12CC3CC(C)(C1)CC(C(=O)Nc1nc4ccc(Cl)cc4o1)(C3)C2` [Example 117, N-(6-chloro-1,3-benzoxazol-2-yl)-3,5-dimethyladamantane-1-carboxamide], 2 to 32 µg/mL (≈ 5.57 to 89.2 µM).
To `CC1CC(C(=O)Nc2nc3ccc(Cl)cc3o2)CC(C)(C)C1` (stereo not shown) [Example 118, N-(6-chloro-1,3-benzoxazol-2-yl)-3,3,5-trimethylcyclohexane-1-carboxamide] belongs 2 to 32 µg/mL (≈ 6.23 to 99.7 µM); to `CC12CC3CC(C)(C1)CC(C(=O)Nc1nc4cc(F)c(F)cc4[nH]1)(C3)C2` [Example 119, N-(5,6-difluoro-1H-1,3-benzodiazol-2-yl)-3,5-dimethyladamantane-1-carboxamide], 2 to 32 µg/mL (≈ 5.56 to 89 µM).
`CC12CC3CC(C)(C1)CC(C(=O)Nc1nc4ccc(F)cc4[nH]1)(C3)C2` [Example 120, N-(6-fluoro-1H-1,3-benzodiazol-2-yl)-3,5-dimethyladamantane-1-carboxamide] returned an MIC of 2 to 32 µg/mL (≈ 5.86 to 93.7 µM).
`CC1CC(C(=O)Nc2nc3c(F)cccc3s2)CC(C)(C)C1` (stereo not shown) [Example 121, N-(4-fluoro-1,3-benzothiazol-2-yl)-3,3,5-trimethylcyclohexane-1-carboxamide] came in with an MIC of 2 to 32 µg/mL (≈ 6.24 to 99.9 µM).
In the case of `CC12CC3CC(C)(C1)CC(C(=O)Nc1nc4c(F)cccc4s1)(C3)C2` [Example 122, N-(4-fluoro-1,3-benzothiazol-2-yl)-3,5-dimethyladamantane-1-carboxamide] it was 2 to 32 µg/mL (≈ 5.58 to 89.3 µM); in that of `CC12CC3CC(C)(C1)CC(C(=O)Nc1nc4ccc(F)cc4s1)(C3)C2` [Example 123, N-(6-fluoro-1,3-benzothiazol-2-yl)-3,5-dimethyladamantane-1-carboxamide], 2 to 32 µg/mL (≈ 5.58 to 89.3 µM).
In the case of `COc1ccc2nc(NC(=O)C34CC5CC(C)(CC(C)(C5)C3)C4)sc2c1` [Example 124, N-(6-methoxy-1,3-benzothiazol-2-yl)-3,5-dimethyladamantane-1-carboxamide] it was 2 to 32 µg/mL (≈ 5.4 to 86.4 µM); in that of `CC1CC(C(=O)Nc2nc3ccccc3s2)CC(C)(C)C1` (stereo not shown) [Example 125, N-(1,3-benzothiazol-2-yl)-3,3,5-trimethylcyclohexane-1-carboxamide], 2 to 32 µg/mL (≈ 6.61 to 106 µM); in that of `O=C(Nc1nc2ccc(C(F)(F)F)cc2s1)C1CCCC(C(F)(F)F)C1` (stereo not shown) [Example 126, 3-(trifluoromethyl)-N-[6-(trifluoromethyl)-1,3-benzothiazol-2-yl]cyclohexane-1-carboxamide], 2 to 32 µg/mL (≈ 5.05 to 80.7 µM).
To `CC1CCCC(C(=O)Nc2nc3ccc(C(F)(F)F)cc3s2)C1` (stereo not shown) [Example 127, 3-methyl-N-[6-(trifluoromethyl)-1,3-benzothiazol-2-yl]cyclohexane-1-carboxamide] belongs 2 to 32 µg/mL (≈ 5.84 to 93.5 µM); to `CC1(C(=O)Nc2nc3ccc(C(F)(F)F)cc3s2)CCCC1` [Example 128, 1-methyl-N-[6-(trifluoromethyl)-1,3-benzothiazol-2-yl]cyclopentane-1-carboxamide], 2 to 32 µg/mL (≈ 6.09 to 97.5 µM).
`C[C@]1(C(=O)Nc2nc3ccc(OC(F)(F)F)cc3s2)C[C@@H]2C=C[C@H]1C2` [Example 129, (1R,2S,4R)-2-methyl-N-[6-(trifluoromethoxy)-1,3-benzothiazol-2-yl]bicyclo[2.2.1]hept-5-ene-2-carboxamide] gave an MIC of 2 to 32 µg/mL (≈ 5.43 to 86.9 µM).
Molecule `O=C(Nc1nc2ccc(OC(F)(F)F)cc2s1)C1CCCC1` [Example 130, N-[6-(trifluoromethoxy)-1,3-benzothiazol-2-yl]cyclopentanecarboxamide] came in with an MIC of 2 to 32 µg/mL (≈ 6.05 to 96.9 µM).
In turn, `O=C(Nc1nc2ccccc2o1)C1C2CC3CC(C2)CC1C3` (stereo not shown) [Example 131, N-(1,3-benzoxazol-2-yl)adamantane-2-carboxamide] showed an MIC of 2 to 32 µg/mL (≈ 6.75 to 108 µM).
In the case of `CC12CCCC(C(=O)Nc3nc4ccc(C(F)(F)F)cc4o3)(CCC1)C2` [Example 132, 5-methyl-N-[6-(trifluoromethyl)-1,3-benzoxazol-2-yl]bicyclo[3.3.1]nonane-1-carboxamide] it was 2 to 32 µg/mL (≈ 5.46 to 87.3 µM).
